Reference: paper PMC10482975 (Nature Communications, 2023)
Numbering of substitutions follows the chain as printed. Like-named read-outs stand apart in the source and are kept apart here.

Assays:
M4 mAChR F186A = target: T1, M4 mAChR F186A (Homo sapiens, UniProt P08173, F186A); assay: [3H]-NMS radioligand dissociation binding, M4 mAChR F186A; conditions: for [3H]-NMS binding remaining (0 min = 100), MEAN: M4 F186A mAChR; for effect on [3H]-NMS dissociation (in words): M4 mAChR F186A mutant
T1 construct: expressed in transfected cells
T1 sequence (P08173 1-479 F186A): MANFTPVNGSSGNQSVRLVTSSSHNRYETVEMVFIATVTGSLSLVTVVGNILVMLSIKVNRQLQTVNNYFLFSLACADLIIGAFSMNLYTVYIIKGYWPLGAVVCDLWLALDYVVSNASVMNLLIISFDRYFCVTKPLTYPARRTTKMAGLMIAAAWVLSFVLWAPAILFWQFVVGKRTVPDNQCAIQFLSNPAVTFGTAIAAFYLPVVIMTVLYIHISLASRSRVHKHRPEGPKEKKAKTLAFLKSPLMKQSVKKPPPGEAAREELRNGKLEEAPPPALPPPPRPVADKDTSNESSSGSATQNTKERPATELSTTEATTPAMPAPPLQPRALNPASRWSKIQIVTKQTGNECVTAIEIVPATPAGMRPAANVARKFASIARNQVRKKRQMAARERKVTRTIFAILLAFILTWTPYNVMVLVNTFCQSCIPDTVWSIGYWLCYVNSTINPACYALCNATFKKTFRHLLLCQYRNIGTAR
Description: (§1) Flp-In Chinese hamster ovary (CHO) (Thermo Fisher Scientific) cells stably expressing mAChR WTs or mutant constructs were cultured in Dulbecco’s modified Eagle’s medium (DMEM, Invitrogen) containing 5% foetal bovine serum (FBS; ThermoTrace) and […] of hygromycin (Roche) in a humidified incubator (37 °C, 5% CO2). Upon reaching confluence, media was removed, cells were washed with phosphate buffered saline (PBS) and harvested from tissue culture flasks using versene (PBS with 0.2 g EDTA). Cells were then pelleted through centrifugation at 350 × g for three minutes followed by resuspension in DMEM + 5% FBS. Cells were then either plated for an assay or reseeded into a tissue culture flask.

M4 mAChR Y89A = target: T2, M4 mAChR Y89A (Homo sapiens, UniProt P08173, Y89A); assay: [3H]-NMS radioligand dissociation binding, M4 mAChR Y89A; set-up: [3H]-NMS binding remaining vs Total Binding, MEAN: unit not given here; conditions: for [3H]-NMS binding remaining vs Total Binding, MEAN: M4 Y89A mAChR; for effect on [3H]-NMS dissociation (in words): M4 mAChR Y89A mutant
T2 construct: expressed in transfected cells
T2 sequence (P08173 1-479 Y89A): T1 sequence (P08173 1-479 F186A) with Y89A, A186F
Description: as §1

M4 mAChR L190F = target: T3, M4 mAChR L190F (Homo sapiens, UniProt P08173, L190F); assay: [3H]-NMS radioligand dissociation binding, M4 mAChR L190F; set-up: unit not given here
T3 construct: expressed in transfected cells
T3 sequence (P08173 1-479 L190F): T1 sequence (P08173 1-479 F186A) with A186F, L190F
Description: as §1

M1 mAChR WT = target: T4, M1 mAChR WT (Homo sapiens, UniProt P11229); type: binding
T4 construct: expressed in transfected cells
T4 sequence (P11229 1-460): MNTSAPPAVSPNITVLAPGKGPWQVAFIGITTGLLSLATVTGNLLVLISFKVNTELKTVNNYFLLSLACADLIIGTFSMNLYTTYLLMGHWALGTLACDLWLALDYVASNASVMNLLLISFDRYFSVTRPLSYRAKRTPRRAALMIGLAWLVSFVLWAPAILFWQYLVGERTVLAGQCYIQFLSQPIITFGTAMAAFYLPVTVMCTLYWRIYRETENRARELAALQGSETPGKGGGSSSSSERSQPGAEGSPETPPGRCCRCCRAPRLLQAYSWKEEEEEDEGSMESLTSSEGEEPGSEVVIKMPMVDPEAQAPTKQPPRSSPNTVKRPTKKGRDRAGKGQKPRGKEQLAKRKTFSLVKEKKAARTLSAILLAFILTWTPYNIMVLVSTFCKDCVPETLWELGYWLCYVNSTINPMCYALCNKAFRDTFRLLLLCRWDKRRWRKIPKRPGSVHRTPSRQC
Description: as §1

[1] = + 10uM LY2033 (Allosteric Ligand), Time 0 min (Total Binding)
[2] = + 10uM LY2033 (Allosteric Ligand), Time 30 min
[3] = + 10uM LY2033 (Allosteric Ligand), Time 60 min
[4] = + 10uM LY2033 (Allosteric Ligand), Time 90 min
[5] = + 10uM LY2033 (Allosteric Ligand), Time 120 min
[6] = + 10uM LY2033 (Allosteric Ligand), Time 180 min
[7] = + 10uM LY2033 (Allosteric Ligand), Time 300 min
[8] = 10uM Atr + 10 μM Iperoxo, 90 min

CCCCCCOc1nsnc1C1=CCCN(C)C1 [xanomeline]
[3H]-NMS binding remaining (0 min = 100), MEAN (M4 mAChR F186A; 10uM Atr + 30 μM Xano, 30 min): 78.1603 | [3H]-NMS binding remaining (0 min = 100), MEAN (M4 mAChR F186A; 10uM Atr + 30 μM Xano, 90 min): 48.8248 | [3H]-NMS binding remaining (0 min = 100), MEAN (M4 mAChR F186A; 10uM Atr + 30 μM Xano, 180 min): 47.3729 | [3H]-NMS binding remaining (0 min = 100), MEAN (M4 mAChR F186A; 10uM Atr + 100uM Xano, 30 min): 72.0364 | [3H]-NMS binding remaining (0 min = 100), MEAN (M4 mAChR F186A; 10uM Atr + 100uM Xano, 90 min): 60.4086 | [3H]-NMS binding remaining (0 min = 100), MEAN (M4 mAChR F186A; 10uM Atr + 100uM Xano, 180 min): 46.0676 | [3H]-NMS binding remaining (0 min = 100), MEAN (M4 mAChR F186A; 10uM Atr + 100uM Xano, 300 min): 23.3758 | effect on [3H]-NMS dissociation (in words) (M4 mAChR F186A): no longer retarded | [3H]-NMS binding remaining vs Total Binding, MEAN (M4 mAChR Y89A; +100uM Xano, Time 30 min): 98.3579 | [3H]-NMS binding remaining vs Total Binding, MEAN (M4 mAChR Y89A; +100uM Xano, Time 60 min): 102.694 | [3H]-NMS binding remaining vs Total Binding, MEAN (M4 mAChR Y89A; +100uM Xano, Time 90 min): 104.852 | [3H]-NMS binding remaining vs Total Binding, MEAN (M4 mAChR Y89A; +100uM Xano, Time 120 min): 120.479 | [3H]-NMS binding remaining vs Total Binding, MEAN (M4 mAChR Y89A; +100uM Xano, Time 300 min): 77.2149 | effect on [3H]-NMS dissociation (in words) (M4 mAChR Y89A): improved ability | [3H]-NMS binding remaining vs Total Binding, MEAN (M4 mAChR L190F; +100uM Xano, Time 90 min): 72.792 | [3H]-NMS binding remaining vs Total Binding, MEAN (M4 mAChR L190F; +100uM Xano, Time 180 min): 51.0423 | [3H]-NMS binding remaining vs Total Binding, MEAN (M4 mAChR L190F; +100uM Xano, Time 300 min): 24.2929

COc1nc2sc(C(=O)NC3CC3)c(N)c2c(C)c1Cl [LY2033298]
[3H]-NMS binding remaining (0 min = 100), MEAN (M4 mAChR F186A; 10uM Atr + 30uM LY2033, 30 min): 80.3007 | [3H]-NMS binding remaining (0 min = 100), MEAN (M4 mAChR F186A; 10uM Atr + 30uM LY2033, 90 min): 48.89 | [3H]-NMS binding remaining (0 min = 100), MEAN (M4 mAChR F186A; 10uM Atr + 30uM LY2033, 180 min): 55.5733 | [3H]-NMS binding remaining (0 min = 100), MEAN (M4 mAChR F186A; 10uM Atr + 30uM LY2033, 300 min): 28.0247 | effect on [3H]-NMS dissociation (in words) (M4 mAChR F186A): a similar effect was observed | [3H]-NMS binding remaining vs Total Binding, MEAN (M4 mAChR Y89A; [1]): 100.077 | [3H]-NMS binding remaining vs Total Binding, MEAN (M4 mAChR Y89A; [2]): 111.396 | [3H]-NMS binding remaining vs Total Binding, MEAN (M4 mAChR Y89A; [3]): 121.467 | [3H]-NMS binding remaining vs Total Binding, MEAN (M4 mAChR Y89A; [4]): 123.726 | [3H]-NMS binding remaining vs Total Binding, MEAN (M4 mAChR Y89A; [5]): 111.892 | [3H]-NMS binding remaining vs Total Binding, MEAN (M4 mAChR Y89A; [6]): 116.814 | [3H]-NMS binding remaining vs Total Binding, MEAN (M4 mAChR Y89A; [7]): 102.533 | effect on [3H]-NMS dissociation (in words) (M4 mAChR Y89A): the same effect was observed | [3H]-NMS binding remaining (0 min = 100), MEAN (M1 mAChR WT; 10uM Atr + 30uM LY2033, 10 min): 100.177 | [3H]-NMS binding remaining (0 min = 100), MEAN (M1 mAChR WT; 10uM Atr + 30uM LY2033, 20 min): 95.7624 | [3H]-NMS binding remaining (0 min = 100), MEAN (M1 mAChR WT; 10uM Atr + 30uM LY2033, 40 min): 97.3513 | [3H]-NMS binding remaining (0 min = 100), MEAN (M1 mAChR WT; 10uM Atr + 30uM LY2033, 60 min): 85.8605 | [3H]-NMS binding remaining (0 min = 100), MEAN (M1 mAChR WT; 10uM Atr + 30uM LY2033, 90 min): 73.8671 | [3H]-NMS binding remaining (0 min = 100), MEAN (M1 mAChR WT; 10uM Atr + 30uM LY2033, 120 min): 62.858 | [3H]-NMS binding remaining vs Total Binding, MEAN (M4 mAChR L190F; [1]): 100 | [3H]-NMS binding remaining vs Total Binding, MEAN (M4 mAChR L190F; [2]): 104.676 | [3H]-NMS binding remaining vs Total Binding, MEAN (M4 mAChR L190F; [3]): 101.661 | [3H]-NMS binding remaining vs Total Binding, MEAN (M4 mAChR L190F; [4]): 96.3234 | [3H]-NMS binding remaining vs Total Binding, MEAN (M4 mAChR L190F; [5]): 92.5099 | [3H]-NMS binding remaining vs Total Binding, MEAN (M4 mAChR L190F; [6]): 89.5439 | [3H]-NMS binding remaining vs Total Binding, MEAN (M4 mAChR L190F; [7]): 70.7364

C[N+](C)(C)CC#CCOC1=NOCC1 [iperoxo]
[3H]-NMS binding remaining (0 min = 100), MEAN (M4 mAChR F186A; 10uM Atr + 10 μM Iperoxo, 30 min): 78.4972 | [3H]-NMS binding remaining (0 min = 100), MEAN (M4 mAChR F186A; [8]): 56.5181 | [3H]-NMS binding remaining (0 min = 100), MEAN (M4 mAChR F186A; 10uM Atr + 10 μM Iperoxo, 180 min): 43.1916 | [3H]-NMS binding remaining (0 min = 100), MEAN (M4 mAChR F186A; 10uM Atr + 10 μM Iperoxo, 300 min): 30.9448 | [3H]-NMS binding remaining (0 min = 100), MEAN (M1 mAChR WT; 10uM Atr + 10 μM Iperoxo, 10 min): 87.0617 | [3H]-NMS binding remaining (0 min = 100), MEAN (M1 mAChR WT; 10uM Atr + 10 μM Iperoxo, 20 min): 66.0557 | [3H]-NMS binding remaining (0 min = 100), MEAN (M1 mAChR WT; 10uM Atr + 10 μM Iperoxo, 40 min): 41.8921 | [3H]-NMS binding remaining (0 min = 100), MEAN (M1 mAChR WT; 10uM Atr + 10 μM Iperoxo, 60 min): 27.7899 | [3H]-NMS binding remaining (0 min = 100), MEAN (M1 mAChR WT; [8]): 20.387 | [3H]-NMS binding remaining (0 min = 100), MEAN (M1 mAChR WT; 10uM Atr + 10 μM Iperoxo, 120 min): 14.5109
